{
  "source": "ChEMBL document CHEMBL2169878",
  "about": "(J Med Chem, 2012)",
  "key": {"[1]": {"test_system": "Homo sapiens", "experiment": "Volume of distribution in po dosed human measured in plasma", "type": "ADME, organism-based", "conditions": "in vivo"}, "[2]": {"test_system": "Salmonella typhimurium", "experiment": "Mutagenicity against Salmonella typhimurium TA98 assessed as revertants at 10 uM incubated for 90 mins followed by drug washout measured after 2 days relative to positive control", "type": "toxicity, organism-based", "conditions": "salmonella enterica subsp. enterica serovar typhimurium, 1.5 h"}, "[3]": {"test_system": "Salmonella typhimurium", "experiment": "Mutagenicity against Salmonella typhimurium TA98 assessed as revertants at 80 uM incubated for 90 mins followed by drug washout measured after 2 days relative to positive control", "type": "toxicity, organism-based", "conditions": "salmonella enterica subsp. enterica serovar typhimurium, 1.5 h"}, "[4]": {"test_system": "Salmonella typhimurium", "experiment": "Mutagenicity against Salmonella typhimurium TA100 assessed as revertants at 5 uM incubated for 90 mins followed by drug washout measured after 2 days relative to positive control", "type": "toxicity, organism-based", "conditions": "salmonella enterica subsp. enterica serovar typhimurium, 1.5 h"}, "[5]": {"test_system": "Salmonella typhimurium", "experiment": "Mutagenicity against Salmonella typhimurium TA98 assessed as revertants at 40 uM incubated for 90 mins followed by drug washout measured after 2 days relative to positive control", "type": "toxicity, organism-based", "conditions": "salmonella enterica subsp. enterica serovar typhimurium"}, "[6]": {"test_system": "Homo sapiens", "experiment": "Volume of distribution in po dosed human measured in whole blood", "type": "ADME, organism-based", "conditions": "in vivo"}, "[7]": {"test_system": "Salmonella typhimurium", "experiment": "Mutagenicity against Salmonella typhimurium TA98 assessed as revertants at 20 uM incubated for 90 mins followed by drug washout measured after 2 days relative to positive control", "type": "toxicity, organism-based", "conditions": "salmonella enterica subsp. enterica serovar typhimurium, 1.5 h"}, "[8]": {"test_system": "Salmonella typhimurium", "experiment": "Mutagenicity against Salmonella typhimurium TA100 assessed as revertants at 40 uM incubated for 90 mins followed by drug washout measured after 2 days relative to positive control", "type": "toxicity, organism-based", "conditions": "salmonella enterica subsp. enterica serovar typhimurium"}, "[9]": {"test_system": "Salmonella typhimurium", "experiment": "Mutagenicity against Salmonella typhimurium TA100 assessed as revertants at 20 uM incubated for 90 mins followed by drug washout measured after 2 days relative to positive control", "type": "toxicity, organism-based", "conditions": "salmonella enterica subsp. enterica serovar typhimurium, 1.5 h"}, "[10]": {"experiment": "Half life in po dosed human plasma", "type": "ADME, organism-based"}, "[11]": {"experiment": "Cytotoxicity against human HepG2 cells after 24 hrs by neutral red dye uptake assay", "type": "cell-based", "conditions": "read-out: TC50"}, "[12]": {"test_system": "Salmonella typhimurium", "experiment": "Mutagenicity against Salmonella typhimurium TA100 assessed as revertants at […] incubated for 90 mins followed by drug washout measured after 2 days relative to positive control", "type": "toxicity, organism-based", "conditions": "salmonella enterica subsp. enterica serovar typhimurium"}, "[13]": {"test_system": "Salmonella typhimurium", "experiment": "Mutagenicity against Salmonella typhimurium TA98 assessed as revertants at […] incubated for 90 mins followed by drug washout measured after 2 days relative to positive control", "type": "toxicity, organism-based", "conditions": "salmonella enterica subsp. enterica serovar typhimurium"}, "[14]": {"test_system": "Salmonella typhimurium", "experiment": "Mutagenicity against Salmonella typhimurium TA100 assessed as revertants at 10 uM incubated for 90 mins followed by drug washout measured after 2 days relative to positive control", "type": "toxicity, organism-based", "conditions": "salmonella enterica subsp. enterica serovar typhimurium"}, "[15]": {"experiment": "Cytotoxicity against mouse NIH3T3 cells after 24 hrs by neutral red dye uptake assay", "type": "cell-based", "conditions": "read-out: TC50"}, "[16]": {"test_system": "Salmonella typhimurium", "experiment": "Mutagenicity against Salmonella typhimurium TA100 assessed as revertants at 80 uM incubated for 90 mins followed by drug washout measured after 2 days relative to positive control", "type": "toxicity, organism-based", "conditions": "salmonella enterica subsp. enterica serovar typhimurium"}, "[17]": {"test_system": "Salmonella typhimurium", "experiment": "Mutagenicity against Salmonella typhimurium TA98 assessed as revertants at 5 uM incubated for 90 mins followed by drug washout measured after 2 days relative to positive control", "type": "toxicity, organism-based", "conditions": "salmonella enterica subsp. enterica serovar typhimurium, 1.5 h"}, "[18]": {"test_system": "Salmonella typhimurium", "experiment": "Mutagenicity against Salmonella typhimurium TA98 assessed as revertants at 2 uM incubated for 90 mins followed by drug washout measured after 2 days relative to positive control", "type": "toxicity, organism-based", "conditions": "salmonella enterica subsp. enterica serovar typhimurium, 1.5 h"}, "[19]": {"test_system": "Plasmodium falciparum", "experiment": "Antiplasmodial activity against chloroquine-sensitive Plasmodium falciparum NF54 infected in human erythrocytes assessed as inhibition of [3H]hypoxanthine incorporation incubated for 48 hrs prior to [3H]hypoxanthine addition measured after 48 hrs by liquid scintillation counting", "type": "functional, organism-based"}, "[20]": {"test_system": "Salmonella typhimurium", "experiment": "Mutagenicity against Salmonella typhimurium TA98 assessed as revertants at 18 uM incubated for 90 mins followed by drug washout measured after 2 days relative to positive control", "type": "toxicity, organism-based", "conditions": "salmonella enterica subsp. enterica serovar typhimurium"}, "[21]": {"test_system": "Salmonella typhimurium", "experiment": "Mutagenicity against Salmonella typhimurium TA100 assessed as revertants at 2 uM incubated for 90 mins followed by drug washout measured after 2 days relative to positive control", "type": "toxicity, organism-based", "conditions": "salmonella enterica subsp. enterica serovar typhimurium"}, "[22]": {"test_system": "Salmonella typhimurium", "experiment": "Mutagenicity against Salmonella typhimurium TA100 assessed as revertants at 9 uM incubated for 90 mins followed by drug washout measured after 2 days relative to positive control", "type": "toxicity, organism-based", "conditions": "salmonella enterica subsp. enterica serovar typhimurium, 1.5 h"}, "[23]": {"test_system": "Salmonella typhimurium", "experiment": "Mutagenicity against Salmonella typhimurium TA100 assessed as revertants at 18 uM incubated for 90 mins followed by drug washout measured after 2 days relative to positive control", "type": "toxicity, organism-based", "conditions": "salmonella enterica subsp. enterica serovar typhimurium"}, "[24]": {"test_system": "Plasmodium falciparum", "experiment": "Antiplasmodial activity against chloroquine-resistant Plasmodium falciparum W2 infected in human RBC after 72 hrs by parasite lactate dehydrogenase assay", "type": "functional, organism-based", "conditions": "W2, 72 h"}, "[25]": {"test_system": "Salmonella typhimurium", "experiment": "Mutagenicity against Salmonella typhimurium TA100 assessed as revertants at 4 uM incubated for 90 mins followed by drug washout measured after 2 days relative to positive control", "type": "toxicity, organism-based", "conditions": "salmonella enterica subsp. enterica serovar typhimurium, 1.5 h"}, "[26]": {"test_system": "Salmonella typhimurium", "experiment": "Mutagenicity against Salmonella typhimurium TA98 assessed as revertants at 35 uM incubated for 90 mins followed by drug washout measured after 2 days relative to positive control", "type": "toxicity, organism-based", "conditions": "salmonella enterica subsp. enterica serovar typhimurium, 1.5 h"}, "[27]": {"test_system": "Salmonella typhimurium", "experiment": "Mutagenicity against Salmonella typhimurium TA100 assessed as revertants at 70 uM incubated for 90 mins followed by drug washout measured after 2 days relative to positive control", "type": "toxicity, organism-based", "conditions": "salmonella enterica subsp. enterica serovar typhimurium"}, "[28]": {"test_system": "Salmonella typhimurium", "experiment": "Mutagenicity against Salmonella typhimurium TA98 assessed as revertants at 9 uM incubated for 90 mins followed by drug washout measured after 2 days relative to positive control", "type": "toxicity, organism-based", "conditions": "salmonella enterica subsp. enterica serovar typhimurium"}, "[29]": {"test_system": "Plasmodium falciparum", "experiment": "Antiplasmodial activity against chloroquine-resistant Plasmodium falciparum K1 infected in human erythrocytes assessed as inhibition of [3H]hypoxanthine incorporation incubated for 48 hrs prior to [3H]hypoxanthine addition measured after 48 hrs by liquid scintillation counting", "type": "functional, organism-based"}, "[30]": {"test_system": "Plasmodium falciparum", "experiment": "Resistance ratio of IC50 for chloroquine-resistant Plasmodium falciparum W2 to IC50 for chloroquine-sensitive Plasmodium falciparum D10", "type": "functional"}, "[31]": {"test_system": "Plasmodium falciparum", "experiment": "Antiplasmodial activity against chloroquine-sensitive Plasmodium falciparum D10 infected in human RBC after 72 hrs by parasite lactate dehydrogenase assay", "type": "functional, organism-based", "conditions": "D10, 72 h"}, "[32]": {"test_system": "Plasmodium falciparum", "experiment": "Resistance ratio of IC50 for chloroquine-resistant Plasmodium falciparum K1 to IC50 for chloroquine-sensitive Plasmodium falciparum NF54", "type": "functional"}, "[33]": {"test_system": "Salmonella typhimurium", "experiment": "Mutagenicity against Salmonella typhimurium TA98 assessed as revertants at 70 uM incubated for 90 mins followed by drug washout measured after 2 days relative to positive control", "type": "toxicity, organism-based", "conditions": "salmonella enterica subsp. enterica serovar typhimurium"}, "[34]": {"test_system": "Salmonella typhimurium", "experiment": "Mutagenicity against Salmonella typhimurium TA100 assessed as revertants at 35 uM incubated for 90 mins followed by drug washout measured after 2 days relative to positive control", "type": "toxicity, organism-based", "conditions": "salmonella enterica subsp. enterica serovar typhimurium"}, "[35]": {"test_system": "Salmonella typhimurium", "experiment": "Mutagenicity against Salmonella typhimurium TA98 assessed as revertants at 4 uM incubated for 90 mins followed by drug washout measured after 2 days relative to positive control", "type": "toxicity, organism-based", "conditions": "salmonella enterica subsp. enterica serovar typhimurium"}},
  "data": [
    {"smiles": "CCN(CC)CCCC(C)Nc1ccnc2cc(Cl)ccc12", "note": "(configuration not stated) [CHLOROQUINE]", "values": [
      {"measurement": "Vd", "setting": "[1]", "result": 200, "unit": "L/kg"},
      {"measurement": "Activity", "setting": "[2]", "result": 61, "unit": "%"},
      {"measurement": "Activity", "setting": "[3]", "result": 50, "unit": "%"},
      {"measurement": "Activity", "setting": "[4]", "result": 21, "unit": "%"},
      {"measurement": "Activity", "setting": "[5]", "result": 19, "unit": "%"},
      {"measurement": "Vd", "setting": "[6]", "result": 200, "unit": "L/kg"},
      {"measurement": "Activity", "setting": "[7]", "result": 29, "unit": "%"},
      {"measurement": "Activity", "setting": "[8]", "result": 38, "unit": "%"},
      {"measurement": "Activity", "setting": "[9]", "result": 7, "unit": "%"},
      {"measurement": "half-life", "setting": "[10]", "result": 20, "unit": "days"},
      {"measurement": "CC50 at 24 h", "setting": "[11]", "result": 4300, "unit": "nM"},
      {"measurement": "Activity", "setting": "[12]", "result": 36, "unit": "%"},
      {"measurement": "Activity", "setting": "[13]", "result": 24, "unit": "%"},
      {"measurement": "Activity", "setting": "[14]", "result": 26, "unit": "%"},
      {"measurement": "CC50 at 24 h", "setting": "[15]", "result": "> 80000", "unit": "nM"},
      {"measurement": "Activity", "setting": "[16]", "result": 23, "unit": "%"},
      {"measurement": "Activity", "setting": "[17]", "result": 14, "unit": "%"}
    ]},
    {"smiles": "Clc1ccc(C(Nc2ccnc3cc(Cl)ccc23)c2ccc(Cn3ccnc3)cc2)cc1", "note": "(racemic)", "values": [
      {"measurement": "Activity", "setting": "[18]", "result": 0, "unit": "%"},
      {"measurement": "IC50", "setting": "[19]", "result": 18, "unit": "nM"},
      {"measurement": "Activity", "setting": "[20]", "result": 3, "unit": "%"},
      {"measurement": "Activity", "setting": "[21]", "result": 6, "unit": "%"},
      {"measurement": "Activity", "setting": "[22]", "result": 7, "unit": "%"},
      {"measurement": "Activity", "setting": "[23]", "result": 5, "unit": "%"},
      {"measurement": "IC50", "setting": "[24]", "result": 57, "unit": "nM"},
      {"measurement": "Activity", "setting": "[25]", "result": 6, "unit": "%"},
      {"measurement": "Activity", "setting": "[26]", "result": 3, "unit": "%"},
      {"measurement": "Activity", "setting": "[27]", "result": 2, "unit": "%"},
      {"measurement": "Activity", "setting": "[28]", "result": 0, "unit": "%"},
      {"measurement": "CC50 at 24 h", "setting": "[11]", "result": 22000, "unit": "nM"},
      {"measurement": "IC50", "setting": "[29]", "result": 22, "unit": "nM"},
      {"measurement": "Ratio IC50", "setting": "[30]", "result": 1.9},
      {"measurement": "IC50", "setting": "[31]", "result": 30, "unit": "nM"},
      {"measurement": "Ratio IC50", "setting": "[32]", "result": 1.2},
      {"measurement": "CC50 at 24 h", "setting": "[15]", "result": 35000, "unit": "nM"},
      {"measurement": "Activity", "setting": "[33]", "result": 2, "unit": "%"},
      {"measurement": "Activity", "setting": "[34]", "result": 2, "unit": "%"},
      {"measurement": "Activity", "setting": "[35]", "result": 7, "unit": "%"}
    ]}
  ]
}
